Assay results taken from US4486586A, “Cephalosporin derivatives” (Bristol-Myers Company, priority 1983, dated 1984).
In brackets after ≈: the same amount, converted by molar mass.

Columns and labels:
[1] = system: Penicillinsensitive S. aureus; assay: MIC, two-fold serial agar dilution in Mueller-Hinton agar, group (G+)-Ia; assay type: cell-based; conditions: Staphylococcus aureus, penicillin-sensitive S. aureus, 5 strains, read-out: Geometric Mean of MIC, (G+)-Ia
Experimental: (§1) In the primary evaluation of the compounds of this invention, the Minimum Inhibitory Concentrations (MIC's) of the compounds were determined by the two-fold serial agar dilution method in Mueller-Hinton agar against 32 strains of test organisms in six groups.

[2] = system: Penicillinresistant S. aureus; assay: MIC, two-fold serial agar dilution in Mueller-Hinton agar, group (G+)-Ib; assay type: cell-based; conditions: Staphylococcus aureus, penicillin-resistant S. aureus, 5 strains, read-out: Geometric Mean of MIC, (G+)-Ib
Experimental: as §1
(G+)Ib: Penicillinresistant S. aureus (5

[3] = system: Cephalothinsensitive E. coli, Kl. pneumoniae and Pr. mirabilis; assay: MIC, two-fold serial agar dilution in Mueller-Hinton agar, group (G-)-Ia; assay type: cell-based; conditions: cephalothin-sensitive E. coli, 5 strains, read-out: Geometric Mean of MIC, (G-)-Ia
Experimental: as §1
(G-)Ia: Cephalothinsensitive E. coli (2 strains), Kl. pneumoniae (1
strain) and Pr. mirabilis (2 strains)

[4] = system: Cephalothinresistant E. coli and Kl. pneumoniae; assay: MIC, two-fold serial agar dilution in Mueller-Hinton agar, group (G-)-Ib; assay type: cell-based, E. coli (3 strains) and Kl. pneumoniae (3 strains); conditions: read-out: Geometric Mean of MIC, (G-)-Ib
Experimental: as §1
(G-)Ib: Cephalothinresistant E. coli (3 strains) and Kl. pneumoniae (3

[5] = system: M. morganii, Ent. cloacae and Ser. marcescens; assay: MIC, two-fold serial agar dilution in Mueller-Hinton agar, group (G-)-II; assay type: cell-based; conditions: 5 strains, read-out: Geometric Mean of MIC, (G-)-II
Experimental: as §1
(G-)II: M. morganii (1 strain), Ent. cloacae (2 strains) andSer.

Ps. aeruginosa = assay: MIC, two-fold serial agar dilution in Mueller-Hinton agar, group (G-)-III; assay type: cell-based; conditions: Pseudomonas aeruginosa, 7 strains, read-out: Geometric Mean of MIC, (G-)-III
Experimental: as §1
(G-)III: Ps. aeruginosa (7 strains)

SMILES	MIC [1]	MIC [2]	MIC [3]	MIC [4]	MIC [5]	MIC (Ps. aeruginosa)
CO/N=C(\C(=O)NC1C(=O)N2C(C(=O)[O-])=C(/C=C/C[N+]3(C)CCCC3)CS[C@H]12)c1csc(N)n1 (stereo partly shown) [Compound I-1A, 7-[(Z)-2-(2-Aminothiazol-4-yl)-2-methoxyiminoacetamido]-3-[(E)-3-(1-methylpyrrolidinio)-1-propen-1-yl]-3-cephem-4-carboxylate]	0.22 µg/mL (≈ 0.434 µM)	0.59 µg/mL (≈ 1.16 µM)	0.021 µg/mL (≈ 0.0415 µM)	0.11 µg/mL (≈ 0.217 µM)	0.13 µg/mL (≈ 0.257 µM)	5.1 µg/mL (≈ 10.1 µM)
CSc1scc[n+]1C/C=C/C1=C(C(=O)[O-])N2C(=O)C(NC(=O)/C(=N\OC3(C(=O)O)CCC3)c3csc(N)n3)[C@H]2SC1 (stereo partly shown) [Compound I-5G, 7-[(Z)-2-(2-Aminothiazol-4-yl)-2-(1-carboxycyclobut-1-oxyimino)acetamido]-3-[(E)-3-(2-methylthio-3-thiazolio)-1-propen-1-yl]-3-cephem-4-carboxylate]	0.84 µg/mL (≈ 1.32 µM)	2.8 µg/mL (≈ 4.4 µM)	0.014 µg/mL (≈ 0.022 µM)	–	0.13 µg/mL (≈ 0.204 µM)	1.9 µg/mL (≈ 2.98 µM)
CO/N=C(\C(=O)NC1C(=O)N2C(C(=O)[O-])=C(/C=C/C[n+]3ccsc3SC)CS[C@H]12)c1csc(N)n1 (stereo partly shown) [Compound I-1G, 7-[(Z)-2-(2-Aminothiazol-4yl)-2-methoxyiminoacetamido]-3-[(E)-3-(2-methylthio-3-thiazolio)-1-propen-1-yl]-3-cephem-4-carboxylate]	0.15 µg/mL (≈ 0.271 µM)	0.39 µg/mL (≈ 0.706 µM)	0.014 µg/mL (≈ 0.0253 µM)	0.074 µg/mL (≈ 0.134 µM)	0.085 µg/mL (≈ 0.154 µM)	7.6 µg/mL (≈ 13.8 µM)
Nc1cc[n+](C/C=C/C2=C(C(=O)[O-])N3C(=O)C(NC(=O)/C(=N\OC4(C(=O)O)CCC4)c4csc(N)n4)C3SC2)cc1 (stereo not shown) [Compound I-5I, 7-[(Z)-2-(2-Aminothiazol-4-yl)-2-(1-carboxycyclobut-1-oxyimino)acetamido]-3-[(E)-3-(4-aminopyridino)-1-propen-1-yl]-3-cephem-4-carboxylate]	1.6 µg/mL (≈ 2.67 µM)	4.7 µg/mL (≈ 7.84 µM)	0.019 µg/mL (≈ 0.0317 µM)	0.2 µg/mL (≈ 0.334 µM)	0.22 µg/mL (≈ 0.367 µM)	3.5 µg/mL (≈ 5.84 µM)
CO/N=C(\C(=O)NC1C(=O)N2C(C(=O)[O-])=C(/C=C/C[n+]3ccccc3)CS[C@H]12)c1csc(N)n1 (stereo partly shown) [Compound I-1B, 7-[(Z)-2-(2-Aminothiazol-4-yl)-2-methoxyiminoacetamido]-3-[(E)-3-pyridinio-1-propen-1-yl]-3-cephem-4-carboxylate]	0.2 µg/mL (≈ 0.4 µM)	0.52 µg/mL (≈ 1.04 µM)	0.012 µg/mL (≈ 0.024 µM)	0.05 µg/mL (≈ 0.0999 µM)	0.1 µg/mL (≈ 0.2 µM)	5.7 µg/mL (≈ 11.4 µM)
CO/N=C(\C(=O)NC1C(=O)N2C(C(=O)[O-])=C(/C=C/C[n+]3ccc(N)cc3)CS[C@H]12)c1csc(N)n1 (stereo partly shown) [Compound I-1I, 7-[(Z)-2-(2-Aminothiazol-4-yl)-2-methoxyiminoacetamido]-3-[(E)-3-(4-amino-1-pyridinio)-1-propen-1-yl]-3-cephem-4-carboxylate]	0.11 µg/mL (≈ 0.213 µM)	0.34 µg/mL (≈ 0.659 µM)	< 0.016 µg/mL	0.1 µg/mL (≈ 0.194 µM)	0.15 µg/mL (≈ 0.291 µM)	> 25 µg/mL
Nc1ccc[n+](C/C=C/C2=C(C(=O)[O-])N3C(=O)C(NC(=O)/C(=N\OC4(C(=O)O)CCC4)c4csc(N)n4)[C@H]3SC2)c1 (stereo partly shown) [Compound I-5E, 7-[(Z)-2-(2-Aminothiazol-4-yl)-2-(1-carboxycyclobut-1-oxyimino)acetamido]-3-[(E)-3-(3-amino-1-pyridinio)-1-propen-1-yl]-3-cephem-4-carboxylate]	1.2 µg/mL (≈ 2 µM)	3.1 µg/mL (≈ 5.17 µM)	0.016 µg/mL (≈ 0.0267 µM)	–	0.15 µg/mL (≈ 0.25 µM)	1.9 µg/mL (≈ 3.17 µM)
CO/N=C(\C(=O)NC1C(=O)N2C(C(=O)[O-])=C(/C=C/C[N+]3(C)CC=CC3)CS[C@H]12)c1csc(N)n1 (stereo partly shown) [Compound I-1F, 7-[(Z)-2-(2-Aminothiazol-4-yl)-2-methoxyiminoacetamido]-3-[(E)-3-(1-methyl-3-pyrrolinio)-1-propen-1-yl]-3-cephem-4-carboxylate]	0.15 µg/mL (≈ 0.297 µM)	0.39 µg/mL (≈ 0.773 µM)	0.014 µg/mL (≈ 0.0277 µM)	0.074 µg/mL (≈ 0.147 µM)	0.1 µg/mL (≈ 0.198 µM)	3.1 µg/mL (≈ 6.14 µM)
CC(C)(O/N=C(\C(=O)NC1C(=O)N2C(C(=O)[O-])=C(/C=C/C[n+]3ccccc3)CS[C@H]12)c1csc(N)n1)C(=O)O (stereo partly shown) [Compound I-4B, 7-[(Z)-2-(2-Aminothiazol-4-yl)-2-(2-carboxy-2-propoxyimino)acetamido]-3-[(E)-3-pyridinio-1-propen-1-yl]-3-cephem-4-carboxylate]	6 µg/mL (≈ 10.5 µM)	15 µg/mL (≈ 26.2 µM)	0.046 µg/mL (≈ 0.0803 µM)	0.37 µg/mL (≈ 0.646 µM)	0.41 µg/mL (≈ 0.716 µM)	5 µg/mL (≈ 8.73 µM)
C[N+]1(C/C=C/C2=C(C(=O)[O-])N3C(=O)C(NC(=O)/C(=N\OC4(C(=O)O)CCC4)c4csc(N)n4)[C@H]3SC2)CC=CC1 (stereo partly shown) [Compound I-5F, 7-[(Z)-2-(2-Aminothiazol-4-yl)-2-(1-carboxycyclobut-1-oxyimino)acetamido]-3-[(E)-3-(1-methyl-3-pyrrolinio)-1-propen-1-yl]-3-cephem-4-carboxylate]	1.5 µg/mL (≈ 2.55 µM)	4 µg/mL (≈ 6.8 µM)	0.037 µg/mL (≈ 0.0629 µM)	0.22 µg/mL (≈ 0.374 µM)	0.17 µg/mL (≈ 0.289 µM)	2.4 µg/mL (≈ 4.08 µM)
Nc1nc(/C(=N/OC2(C(=O)O)CCC2)C(=O)NC2C(=O)N3C(C(=O)[O-])=C(/C=C/C[n+]4ccccc4)CS[C@H]23)cs1 (stereo partly shown) [Compound I-5B, 7-[(Z)-2-(2-Aminothiazol-4-yl)-2-(1-carboxycyclobut-1-oxyimino)acetamido]-3-[(E)-3-pyridinio-1-propen-1-yl]-3-cephem-4-carboxylate]	1.6 µg/mL (≈ 2.74 µM)	4.7 µg/mL (≈ 8.04 µM)	0.019 µg/mL (≈ 0.0325 µM)	0.23 µg/mL (≈ 0.393 µM)	0.17 µg/mL (≈ 0.291 µM)	2 µg/mL (≈ 3.42 µM)
CO/N=C(\C(=O)NC1C(=O)N2C(C(=O)[O-])=C(/C=C/C[N+](C)(C)C)CS[C@H]12)c1csc(N)n1 (stereo partly shown) [Compound I-1D, 7-[(Z)-2-(2-Aminothiazol-4-yl)-2-methoxyiminoacetamido]-3-[(E)-3-trimethylammonio-1-propen-1-yl]-3-cephem-4-carboxylate]	0.17 µg/mL (≈ 0.354 µM)	0.59 µg/mL (≈ 1.23 µM)	0.0093 µg/mL (≈ 0.0194 µM)	0.074 µg/mL (≈ 0.154 µM)	0.1 µg/mL (≈ 0.208 µM)	3.1 µg/mL (≈ 6.45 µM)
CC(C)(O/N=C(\C(=O)NC1C(=O)N2C(C(=O)[O-])=C(/C=C/C[N+]3(C)CCCC3)CS[C@H]12)c1csc(N)n1)C(=O)O (stereo partly shown) [Compound I-4A, 7-[(Z)-2-(2-Aminothiazol-4-yl)-2-(2-carboxy-2-propoxyimino)acetamido]-3-[(E)-3-(1-methylpyrrolidinio)-1-propen-1-yl]-3-cephem-4-carboxylate]	2.3 µg/mL (≈ 3.97 µM)	4.1 µg/mL (≈ 7.09 µM)	0.036 µg/mL (≈ 0.0622 µM)	0.2 µg/mL (≈ 0.346 µM)	0.17 µg/mL (≈ 0.294 µM)	2.3 µg/mL (≈ 3.97 µM)
C[N+]1(C/C=C/C2=C(C(=O)[O-])N3C(=O)C(NC(=O)/C(=N\OC4(C(=O)O)CCC4)c4csc(N)n4)C3SC2)CCCC1 (stereo not shown) [Compound I-5A]	1.8 µg/mL (≈ 3.05 µM)	4.7 µg/mL (≈ 7.96 µM)	0.038 µg/mL (≈ 0.0643 µM)	0.23 µg/mL (≈ 0.389 µM)	0.26 µg/mL (≈ 0.44 µM)	2.6 µg/mL (≈ 4.4 µM)
Nc1nc(/C(=N/OC2(C(=O)O)CCC2)C(=O)NC2C(=O)N3C(C(=O)[O-])=C(/C=C/C[n+]4ccc5sc(N)nc5c4)CS[C@H]23)cs1 (stereo partly shown) [Compound I-5C, 7-[(Z)-2-(2-Aminothiazol-4-yl)-2-(1-carboxycyclobut-1-oxyimino)acetamido]-3-[(E)-3-(2-amino-5-thiazolo[4,5-c]pyridinio)-1-propen-1-yl]-3-cephem-4-carboxylate]	1.3 µg/mL (≈ 1.98 µM)	4.4 µg/mL (≈ 6.7 µM)	0.015 µg/mL (≈ 0.0228 µM)	0.15 µg/mL (≈ 0.228 µM)	0.14 µg/mL (≈ 0.213 µM)	2.7 µg/mL (≈ 4.11 µM)
CO/N=C(\C(=O)NC1C(=O)N2C(C(=O)[O-])=C(/C=C/C[n+]3ccsc3C)CS[C@H]12)c1csc(N)n1 (stereo partly shown) [Compound I-1H, 7-[(Z)-2-(2-Aminothiazol-4-yl)-2-methoxyiminoacetamido]-3-[(E)-3-(2-methyl-3-thiazolio)-1-propen-1-yl]-3-cephem-4-carboxylate]	0.1 µg/mL (≈ 0.192 µM)	0.3 µg/mL (≈ 0.576 µM)	0.0093 µg/mL (≈ 0.0179 µM)	0.05 µg/mL (≈ 0.096 µM)	0.074 µg/mL (≈ 0.142 µM)	5.7 µg/mL (≈ 10.9 µM)
CO/N=C(\C(=O)NC1C(=O)N2C(C(=O)[O-])=C(/C=C/C[n+]3ccc(C(N)=O)cc3)CS[C@H]12)c1csc(N)n1 (stereo partly shown) [Compound I-1J, 7-[(Z)-2-(2-Aminothiazol-4-yl)-2-methoxyiminoacetamido]-3-[(E)-3-(4-carbamoyl-1-pyridinio)-1-propen-1-yl]-3-cephem-4-carboxylate]	0.26 µg/mL (≈ 0.478 µM)	0.61 µg/mL (≈ 1.12 µM)	0.016 µg/mL (≈ 0.0294 µM)	0.11 µg/mL (≈ 0.202 µM)	0.13 µg/mL (≈ 0.239 µM)	5.7 µg/mL (≈ 10.5 µM)
CO/N=C(\C(=O)NC1C(=O)N2C(C(=O)[O-])=C(/C=C/C[n+]3cccc(N)c3)CS[C@H]12)c1csc(N)n1 (stereo partly shown) [Compound I-1E, 7-[(Z)-2-(2-Aminothiazol-4-yl)-2-methoxyiminoacetamido]-3-[(E)-3-(3-aminopyridinio)-1-propen-1-yl]-3-cephem-4-carboxylate]	0.1 µg/mL (≈ 0.194 µM)	0.3 µg/mL (≈ 0.582 µM)	< 0.0053 µg/mL	0.05 µg/mL (≈ 0.097 µM)	0.043 µg/mL (≈ 0.0834 µM)	5.7 µg/mL (≈ 11.1 µM)
